In the experiment the test system is nude mice, LX-1 lung xenograft intrarenal, tumor weight T/C. The experiment is described as follows: NCI In Vivo Anticancer Drug Screen. Data for tumor model Human Lung LX-1 Xenograft (intrarenal inoculation) in NU/NU Swiss (nude) mice. The conditions noted are these: endpoint: mean tumor weight change, higher = larger tumour. A digest of the protocol:
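Antitumor effect is expressed as a ratio: the mean tumor measurement of the drug-treated group relative to that of the vehicle-dosed control group.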
(A xenograft is tissue or cells of one species grown in another, often human tumour cells in immunodeficient mice.)

Setting [1] is: dose: 100.0 mg/kg/injection, schedule: Q04DX003 (sc), vehicle: saline with Tween-80.
Setting [2] is: dose: 200.0 mg/kg/injection, schedule: Q04DX003 (sc), vehicle: saline with Tween-80.
Where [3] appears, read: dose: 400.0 mg/kg/injection, schedule: Q04DX003 (sc), vehicle: saline with Tween-80.
Setting [4] is: dose: 800.0 mg/kg/injection, schedule: Q04DX003 (sc), vehicle: saline with Tween-80.
Where [5] appears, read: dose: 300.0 mg/kg/injection, schedule: Q04DX003 (sc), vehicle: Klucel (hydroxypropylcellulose) (HPC).
[6] abbreviates: dose: 600.0 mg/kg/injection, schedule: Q04DX003 (sc), vehicle: Klucel (hydroxypropylcellulose) (HPC).
[7] abbreviates: dose: 1200.0 mg/kg/injection, schedule: Q04DX003 (sc), vehicle: Klucel (hydroxypropylcellulose) (HPC).
Where [8] appears, read: dose: 150.0 mg/kg/injection, schedule: Q04DX003 (sc), vehicle: Klucel (hydroxypropylcellulose) (HPC).

Values joined by “and” are separate entries in the source; they are usually repeats but may differ in a detail not shown here. Identical values can stand only once. Inconclusive results are not listed. Bridge positions count the residues as written; N and C are the ends. Square brackets hold non-standard residues; d marks the D form. Peptide text beside a SMILES is read from it. I, II: the chains in the order shown. * marks the point of attachment. Quinoxaline2carbonyl = O=C(c1cnc2ccccc2n1)*; NMeV = CN[CH](C(=O)O)C(C)C; NMeC = CN[CH](CS)C(=O)O

As for `CC1(C)COCN1COC1CCCCC1`, the T/C under setting [1] was 76 % of control, the T/C under setting [2] was 119 % of control, the T/C under setting [3] is 68 % of control and the T/C under setting [4] was 110 % of control.

Consider `C1CN2CCC1CC2`, for which the T/C was 96 % of control (dose: 4.69 mg/kg/injection, schedule: Q04DX003 (sc), vehicle: saline with Tween-80); 73 % of control (dose: 9.38 mg/kg/injection, schedule: Q04DX003 (sc), vehicle: saline with Tween-80); 68 % of control (dose: 18.75 mg/kg/injection, schedule: Q04DX003 (sc), vehicle: saline with Tween-80).

With `CC(C)=CC(=O)OC1C2C(C)=CC(=O)C(O)C2(C)C2C3(O)OCC24C(CC(=O)OC14)C(C)C3O` (configuration not stated), the T/C is 92 % of control (dose: 1.25 mg/kg/injection, schedule: Q04DX003 (sc), vehicle: distilled water + Tween-80) and 90 % of control (dose: 2.5 mg/kg/injection, schedule: Q04DX003 (sc), vehicle: distilled water + Tween-80).

Turning to `O=C(O)CC(=O)O.[NH-]C1CCCCC1[NH-].[Pt+2]` (configuration not stated), the T/C was 187 % of control and 247 % of control (dose: 5.0 mg/kg/injection, schedule: Q01DX010 (sc), vehicle: dextrose); 92 % of control (dose: 10.0 mg/kg/injection, schedule: Q01DX010 (sc), vehicle: dextrose).

Consider `[Cl][Mn][Cl]`, for which the T/C by setting is: (dose: 75.0 mg/kg/injection, schedule: Q04DX003 (sc), vehicle: saline) 68 % of control; (dose: 150.0 mg/kg/injection, schedule: Q04DX003 (sc), vehicle: saline) 50 % of control.

For the molecule `O=C(O)c1ccc(C(=O)O)c(C(=O)O)c1.[NH-]C1CCCCC1[NH-].[Pt+2]`, the T/C (dose: 3.12 mg/kg/injection, schedule: Q01DX010 (sc), vehicle: sodium bicarbonate) was 101 % of control and the T/C (dose: 6.25 mg/kg/injection, schedule: Q01DX010 (sc), vehicle: sodium bicarbonate) was 74 % of control.

Take `CC1NC(=O)C(NC(=O)c2cnc3ccccc3n2)COC(=O)C(C(C)C)N(C)C(=O)C2CSSCC(C(=O)N(C)C(C(C)C)C(=O)OCC(NC(=O)c3cnc4ccccc4n3)C(=O)NC(C)C(=O)N2C)N(C)C1=O` (configuration not stated) (I: Quinoxaline2carbonyl-SA[NMeC][NMeV] / II: Quinoxaline2carbonyl-SA[NMeC][NMeV]; ester I:1-II:C, I:C-II:1; disulfide I:3-II:3; configuration not given here): the T/C was 104 % of control (dose: 100.0 micrograms/kg/injection, schedule: Q04DX003 (sc), vehicle: Klucel (hydroxypropylcellulose) (HPC)); 83 % of control (dose: 200.0 micrograms/kg/injection, schedule: Q04DX003 (sc), vehicle: Klucel (hydroxypropylcellulose) (HPC)); 54 % of control (dose: 400.0 micrograms/kg/injection, schedule: Q04DX003 (sc), vehicle: Klucel (hydroxypropylcellulose) (HPC)).

As to `O=c1[nH]cnc2n[nH]nc12`, the T/C by setting is: under setting [5], 100 % of control; under setting [6], 92 % of control; under setting [7], 35 % of control; (dose: 2400.0 mg/kg/injection, schedule: Q04DX003 (sc), vehicle: Klucel (hydroxypropylcellulose) (HPC)) 27 % of control.

For the molecule `Cc1cc(N/N=C/c2ccccn2)nc2ccccc12`, the T/C runs as follows: under setting [8], 89 % of control; under setting [5], 103 % of control; under setting [6], 115 % of control; under setting [7], 98 % of control.

Take `C/C=C/C=C1/OC(C)=C(C(C)=O)C1=O`: the T/C runs as follows: under setting [1], 107 % of control; under setting [2], 97 % of control; under setting [3], 110 % of control; under setting [4], 92 % of control.

As to `O=C(O)CC(=O)O.[NH-]CC[NH-].[Pt+2]`, the T/C (dose: 12.5 mg/kg/injection, schedule: Q01DX010 (sc), vehicle: dextrose) was 100 % of control; the T/C (dose: 25.0 mg/kg/injection, schedule: Q01DX010 (sc), vehicle: dextrose) is 74 % of control; the T/C (dose: 50.0 mg/kg/injection, schedule: Q01DX010 (sc), vehicle: dextrose) was 74 % of control.

As for `CC1(C)CC1(Br)Br`, the T/C was 160 % of control (dose: 100.0 mg/kg/injection, schedule: Q01DX010 (sc), vehicle: saline with Tween-80); 76 % of control and 77 % of control (dose: 200.0 mg/kg/injection, schedule: Q01DX010 (sc), vehicle: saline with Tween-80); 58 % of control (dose: 400.0 mg/kg/injection, schedule: Q01DX010 (sc), vehicle: saline with Tween-80).

With `CSc1nc(=O)[nH]nc1SCc1ccccc1`, the T/C was 101 % of control (dose: 100.0 mg/kg/injection, schedule: Q04DX003 (sc), vehicle: Klucel (hydroxypropylcellulose) (HPC)); 93 % of control (dose: 200.0 mg/kg/injection, schedule: Q04DX003 (sc), vehicle: Klucel (hydroxypropylcellulose) (HPC)); 64 % of control (dose: 400.0 mg/kg/injection, schedule: Q04DX003 (sc), vehicle: Klucel (hydroxypropylcellulose) (HPC)); 68 % of control (dose: 800.0 mg/kg/injection, schedule: Q04DX003 (sc), vehicle: Klucel (hydroxypropylcellulose) (HPC)).

Turning to `O=C(O)CCCCCCCC(=O)O`, the T/C is, setting by setting: (dose: 150.0 mg/kg/injection, schedule: Q04DX003 (sc), vehicle: distilled water + Tween-80) 105 % of control; (dose: 300.0 mg/kg/injection, schedule: Q04DX003 (sc), vehicle: distilled water + Tween-80) 79 % of control; (dose: 600.0 mg/kg/injection, schedule: Q04DX003 (sc), vehicle: distilled water + Tween-80) 60 % of control; (dose: 1200.0 mg/kg/injection, schedule: Q04DX003 (sc), vehicle: distilled water + Tween-80) 50 % of control.

Regarding `COC(=O)C(Cl)(Cl)N=Nc1c(Cl)cc(Cl)c(C)c1Cl`, the T/C reads like this: (dose: 150.0 mg/kg/injection, schedule: Q04DX003 (sc), vehicle: saline with Tween-80) 210 % of control; (dose: 300.0 mg/kg/injection, schedule: Q04DX003 (sc), vehicle: saline with Tween-80) 196 % of control; (dose: 600.0 mg/kg/injection, schedule: Q04DX003 (sc), vehicle: saline with Tween-80) 237 % of control; (dose: 1200.0 mg/kg/injection, schedule: Q04DX003 (sc), vehicle: saline with Tween-80) 209 % of control.

On to `NC1=NCN(C2OC(CO)C(O)C2O)C(=O)N1` (configuration not stated), for which the T/C is 117 % of control (dose: 25.0 mg/kg/injection, schedule: Q01DX010 (sc), vehicle: saline); 174 % of control (dose: 50.0 mg/kg/injection, schedule: Q01DX010 (sc), vehicle: saline); 117 % of control (dose: 83.3 mg/kg/injection, schedule: Q04DX003 (ip), vehicle: saline); 62 % of control (dose: 100.0 mg/kg/injection, schedule: Q01DX010 (ip), vehicle: saline); 86 % of control (dose: 100.0 mg/kg/injection, schedule: Q01DX010 (sc), vehicle: saline); 89 % of control (dose: 166.66 mg/kg/injection, schedule: Q04DX003 (ip), vehicle: saline). Moreover, the T/C (dose: 333.33 mg/kg/injection, schedule: Q04DX003 (ip), vehicle: saline) is 56 % of control and the T/C (dose: 666.65 mg/kg/injection, schedule: Q04DX003 (ip), vehicle: saline) was 39 % of control.

With `CC1(C)CC(=O)C(CSC(=O)c2ccccc2)C(=O)C1`, the T/C is 102 % of control under setting [8] and 119 % of control under setting [5].

Take `CCCCC(=O)OCC(=O)[C@]1(O)Cc2c(O)c3c(c(O)c2[C@@H](OC2CC(NC(=O)C(F)(F)F)C(O)C(C)O2)C1)C(=O)c1c(OC)cccc1C3=O` (some centres not stated): the T/C reads like this: (dose: 32.0 mg/kg/injection, schedule: Q01DX010 (sc), vehicle: distilled water + Tween-80) 84 % of control; (dose: 512.0 mg/kg/injection, schedule: Q01DX010 (sc), vehicle: distilled water + Tween-80) 5 % of control and 8 % of control and 26 % of control.

Take `NC(=O)c1ccc[n+](Cc2c(Cl)cccc2Cl)c1`: the T/C runs as follows: (dose: 50.0 mg/kg/injection, schedule: Q04DX003 (sc), vehicle: saline) 115 % of control; (dose: 100.0 mg/kg/injection, schedule: Q04DX003 (sc), vehicle: saline) 83 % of control; (dose: 200.0 mg/kg/injection, schedule: Q04DX003 (sc), vehicle: saline) 90 % of control.

With `CC[N+](CC)(CC)CC`, the T/C runs as follows: (dose: 1.5 mg/kg/injection, schedule: Q01DX010 (sc), vehicle: saline with Tween-80) 88 % of control; (dose: 12.0 mg/kg/injection, schedule: Q01DX010 (sc), vehicle: saline with Tween-80) 25 % of control and 49 % of control.

`CC[C@@]1(O)C[C@H](OC2CC(N(C)C)C(OC3CC(O)C(OC4CCC(=O)C(C)O4)C(C)O3)C(C)O2)c2c(cc3c(c2O)C(=O)c2c(O)ccc(O)c2C3=O)[C@H]1C(=O)OC` (some centres not stated): the T/C (dose: 3.0 mg/kg/injection, schedule: Q04DX003 (sc), vehicle: water) was 51 % of control and the T/C (dose: 6.0 mg/kg/injection, schedule: Q04DX003 (sc), vehicle: water) is 79 % of control.

The record behind these values is PubChem BioAssay AID264 (DTP/NCI, 2004).
